pEC50: −log10 of the molar value.
Tests used:
LPL:sGPIHBPI complex = biological target: T1, LPL:sGPIHBPI complex (Homo sapiens, UniProt P06858); assay: VLDL assay (LPL:sGPIHBP1 pre-incubated with ANGPTL4, VLDL substrate, Amplex Red readout); format: biochemical; settings: read-out: VLDL qAC50
T1 sequence (P06858 28-475): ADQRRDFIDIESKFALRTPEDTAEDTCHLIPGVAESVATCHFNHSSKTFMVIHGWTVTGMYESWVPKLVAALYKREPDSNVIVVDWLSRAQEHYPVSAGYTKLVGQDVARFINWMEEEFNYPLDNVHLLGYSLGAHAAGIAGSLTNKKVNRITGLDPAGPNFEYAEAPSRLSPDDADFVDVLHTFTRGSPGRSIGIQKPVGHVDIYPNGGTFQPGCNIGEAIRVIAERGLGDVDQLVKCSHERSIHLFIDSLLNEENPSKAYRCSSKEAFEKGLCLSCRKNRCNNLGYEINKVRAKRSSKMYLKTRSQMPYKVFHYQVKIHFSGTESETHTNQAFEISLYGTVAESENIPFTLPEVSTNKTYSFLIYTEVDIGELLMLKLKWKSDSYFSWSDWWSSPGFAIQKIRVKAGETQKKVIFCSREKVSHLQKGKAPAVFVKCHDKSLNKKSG
T1 sequence (Q8IV16 21-151 partner limits assumed): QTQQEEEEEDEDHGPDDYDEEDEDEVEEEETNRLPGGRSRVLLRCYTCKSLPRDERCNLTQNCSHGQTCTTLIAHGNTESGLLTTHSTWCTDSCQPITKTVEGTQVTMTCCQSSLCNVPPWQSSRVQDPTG
Method: The assay was performed in black I536-well plates using purified proteins. To identify compounds that stimulate LPL activity either by directly activating LPL or by inhibiting the antagonist ANGPTL4, the LPL:sGPIHBPI complex was pre-incubated with ANGPTL4 to decrease LPL activity by 80%. After a 60 min pre-incubation, the coupled enzyme system supplemented with Amplex Red reagent was added. The enzymatic reaction was started by adding the VLDL substrate. 120 min after VLDL addition, the reaction was stopped using SDS and the fluorescence intensity was measured.
40 or 45 nl of compound solution in 100% DMSO were placed in test plate. Then LPL:sGPIHBPI was added to all wells (diluted in assay buffer to 80 nM; 1 μl/well). This was followed by an addition of ANGPTL4 to compounds and neutral controls (diluted in assay buffer to 84 nM; 1 μl/well). The assay buffer was added to stimulator control (1 μl/well). Then the plates were centrifuged and pre-incubated 60 min at RT. A NEFA (1:2 diluted in PBS) supplemented with Amplex Red (40 μM was further added to all wells (1 μl/well). The reaction was then started by adding substrate to all wells (diluted in VLDL buffer to 16 Vg/ml, 1 μl/well). The plates were further centrifuged (800 rpm for 1 my) and incubated 120 m at RT (=reaction time). The reaction was then by adding SDS to all wells (diluted in water to 2.5%, 2 μl/well) and further incubated 30 mi at RT. The fluorescence intensity (ex 540 nm/em 590 nm) was measured on a Pherastar (BMG) using 20 flashes.

[1] = biological target: T2, LPL (native bovine milk protein) inactivated by ANGPTL4 (Bos taurus, UniProt P11151); assay: LPL ANGPTL4 protection assay (LPL fluorescence assay, resorufin butyrate substrate); format: biochemical; settings: LPL activation activity, LPL 2.5 nM, ANGPTL4 20 nM
T2 construct: from tissue; host or cells: bovine milk (LPL); E. coli (GST-ANGPTL4)
T2 sequence (P11151 29-478): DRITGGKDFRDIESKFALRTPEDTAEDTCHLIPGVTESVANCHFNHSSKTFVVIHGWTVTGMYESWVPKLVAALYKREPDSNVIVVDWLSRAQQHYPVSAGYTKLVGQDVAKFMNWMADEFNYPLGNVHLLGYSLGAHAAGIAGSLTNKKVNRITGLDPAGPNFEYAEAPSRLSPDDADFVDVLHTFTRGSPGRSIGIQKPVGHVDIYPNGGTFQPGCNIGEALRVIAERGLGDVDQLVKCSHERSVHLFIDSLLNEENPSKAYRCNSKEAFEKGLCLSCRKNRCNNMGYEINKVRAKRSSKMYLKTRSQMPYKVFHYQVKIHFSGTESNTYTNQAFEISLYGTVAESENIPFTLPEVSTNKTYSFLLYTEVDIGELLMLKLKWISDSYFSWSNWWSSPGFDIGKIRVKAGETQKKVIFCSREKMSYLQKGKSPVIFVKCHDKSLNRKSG
Method: LPL is inactivated by angiopoietin-like 4 (ANGPTL4). Compounds of the present disclosure were for activity using the following protection assay. Briefly, the assay was performed in a black opaque 96-well microtiter plate with final volume of 100 μL using a buffer consisting of 50 mM HEPES (pH 7.2), 150 mM NaCl and 0.03% Triton X-100. Compounds were prepared as 10 mM stocks in DMSO, with subsequent serial dilutions performed in DMSO. Two microliters of test compounds were added to the microtiter plate, followed by 49-PL of LPL (native bovine milk protein affinity purified using heparin-affinity chromatography) in assay buffer. The plate contents were mixed using an orbital shaker and allowed to incubate for 5 minutes at room temperature. The enzymatic assay was initiated by the addition of a mixture of 49 μL of 50 μM resorufin butyrate (Santa Cruz #sc-208302; prepared from a 10 mM DMSO stock) and ANGPTL4 (N-terminal GST construct consisting of residues 26-164 expressed in E. coli) in assay buffer. The final concentrations of LPL and ANGPTL4 were 2.5 nM and 20 nM, respectively. The assay was allowed to proceed at 30° C. for 25 minutes with kinetic monitoring (Ex560/Em585) followed by an endpoint reading which was used for analysis.
Data was analyzed in Graphpad Prism (version 6.0, GraphPad Software, Inc., San Diego, CA) using a variable slope four parameter fit of the equation:
Y=Bottom+(Top-Bottom)/(1+10^((Log EC50−X)*HillSlope)),
where X is the concentration of test compound, Y corresponds to the amount of product expressed in relative fluorescence units, and Top and Bottom refer to the plateaus of the curve. Percent activation (protection) of test compound was calculated relative to zero effect wells (ZEW; LPL, ANGPTL4 and substrate) and maximum effect wells (MEW; LPL plus substrate): ((test well−ZEW)/(MEW−ZEW))*100.

C57BL/6 mice = assay: Oral fat tolerance test (postprandial triglyceridaemia after olive oil bolus); format: in vivo; settings: overnight-fasted C57BL/6 mice, compound IP 1 h before 10 mL/kg olive oil, bled at 1, 2 and 3.5 h
Method: To examine to effects of test compounds on postprandial triglycerdemia, 5-7 week old C57BL/6 mice were fasted overnight (18 hours) on non-nutritive bedding (Alpha-Dri). Following the overnight fast, the mice are bled via retro-orbital sinus (25 μL) using microcapillaries (t-1 hr sample). The LPL activator test compound was then administered intraperitoneally (IP) in a dose volume of 10 ml/kg. One hour later the mice were bled for the t=0 timepoint. The mice were then immediately dosed with a 10 mL/kg oral bolus of olive oil. The mice were subsequently bled at 1-, 2-, and 3.5-hours post-olive oil administration.
Whole blood samples were collected into tubes containing 0.125% EDTA solution in saline. Diluted plasma samples were analyzed for triglyceride levels using Infinity Triglyceride reagent (Thermo) on a microtiter plate. Briefly, 10 μL of diluted sample was added the plate. 200 μL of the reagent was added and the plate was incubated for 10 minutes at 37° C. The plate was then read at 550 nm on a Molecular Devices M5 Spectrophotometer (San Jose, CA). The concentration of triglycerides in the sample was determined using a standard curve made using a dilution of triglyceride standard (Sigma-Aldrich, St. Louis, MO) using the Softmax software from Molecular Devices. All graphing and subsequent area under-the-curve and statistical analysis (Student's t Test) is performed using GraphPad Prism (version 8.0, GraphPad Software, Inc., San Diego, CA).

Row | SMILES | pEC50 (LPL:sGPIHBPI complex) | pEC50 [1] | hypertriglyceridemia response to oral olive oil gavage (plasma triglycerides) (C57BL/6 mice)
1 | CCC1CCCCN1c1ccc(C(=O)Nc2ccc(F)cc2CC(=O)O)cc1NC(=O)c1nn(CC(F)(F)F)c2ccccc12 (centres unmarked) [Example 72] | 5.57 |  | 
2 | O=C(O)Cc1cc(F)ccc1NC(=O)c1ccc(N2CCCCC2)c(NS(=O)(=O)c2nn(CC(F)(F)F)c3ccccc23)c1 [Compound 114, 2-(5-fluoro-2-(4-(piperidin-1-yl)-3-((1-(2,2,2-trifluoroethyl)-1H-indazole)-3-sulfonamido)benzamido)phenyl)acetic acid] | < 4.60 |  | 
3 | CCn1nc(C(=O)Nc2cc(C(=O)Nc3ccccc3CC(=O)NS(C)(=O)=O)ccc2N2CCCCC2)c2ccccc21 [Compound 172, 1-ethyl-N-(5-((2-(2-(methylsulfonamido)-2-oxoethyl)phenyl)carbamoyl)-2-(piperidin-1-yl)phenyl)-1H-indazole-3-carboxamide] |  | 5.12 | blunts hypertriglyceridemia response in a dose-dependent fashion
4 | O=C(O)Cc1cccc(Cl)c1NC(=O)c1ccc(N2CCCCC2)c(NC(=O)c2nn(CC(F)(F)F)c3ccccc23)c1 [Compound 25, 2-(3-chloro-2-(4-(piperidin-1-yl)-3-(1-(2,2,2-trifluoroethyl)-1H-indazole-3-carboxamido)benzamido)phenyl) acetic acid] | 5.30 |  | 
5 | Cc1nc(Cn2nc(C(=O)Nc3cc(C(=O)Nc4ccc(F)cc4CC(=O)O)ccc3N3CCCCC3)c3ccccc32)no1 [Compound 125, 2-(5-fluoro-2-(3-(1-((5-methyl-1,2,4-oxadiazol-3-yl)methyl)-1H-indazole-3-carboxamido)-4-(piperidin-1-yl)benzamido)phenyl)acetic acid] | 5.19 |  | 
6 | Cc1ccc(NC(=O)c2cc(NCc3ccc(-c4nnn[nH]4)cc3)ccc2N2CCCCC2)cc1 [Compound 175, 5-((4-(1H-tetrazol-5-yl)benzyl)amino)-2-(piperidin-1-yl)-N-(p-tolyl)benzamide] |  | 4.87 | blunts hypertriglyceridemia response in a dose-dependent fashion
7 | O=C(O)Cc1cc(F)ccc1NC(=O)c1ccc(N2CCCCC2)c(NC(=O)c2nn(CC3COCCO3)c3ccccc23)c1 (centres unmarked) [Compound 132, 2-(2-(3-(1-((1,4-dioxan-2-yl)methyl)-1H-indazole-3-carboxamido)-4-(piperidin-1-yl)benzamido)-5-fluorophenyl)acetic acid] | 5.13 |  | 
8 | O=C(O)Cc1cc(F)ccc1NC(=O)c1ccc(N2CCCCC2)c(NC(=O)c2nn(CC(F)(F)F)c3ccccc23)n1 [Compound 45, 2-(5-fluoro-2-(5-(piperidin-1-yl)-6-(1-(2,2,2-trifluoroethyl)-1H-indazole-3-carboxamido)picolinamido)phenyl)acetic acid] | < 4.60 |  | 
9 | CC1CCCN(c2ccc(C(=O)Nc3ccc(F)cc3CC(=O)O)cc2NC(=O)c2nn(CC(F)(F)F)c3ccccc23)C1 (centres unmarked) [Example 73] | 5.66 |  | 
10 | Cc1ccc(NC(=O)c2cc(N3Cc4cc(-c5nnn[nH]5)ccc4C3=O)ccc2N2CCCCC2)cc1 [Compound 170, 5-(1-oxo-5-(1H-tetrazol-5-yl)isoindolin-2-yl)-2-(piperidin-1-yl)-N-(p-tolyl)benzamide] |  | 5.10 | blunts hypertriglyceridemia response in a dose-dependent fashion
11 | Cn1nc(C(=O)Nc2cc(C(=O)Nc3ccccc3CC(=O)O)ccc2N2CCCCC2)c2ccccc21 [Compound 174, 2-(2-(3-(1-methyl-1H-indazole-3-carboxamido)-4-(piperidin-1-yl)benzamido)phenyl)acetic acid] |  | 5.40 | blunts hypertriglyceridemia response in a dose-dependent fashion
12 | CC1CCCCN1c1ccc(C(=O)Nc2ccc(F)cc2CC(=O)O)cc1NC(=O)c1nn(CC(F)(F)F)c2ccccc12 (centres unmarked) [Example 67] | 5.60 |  | 
13 | CC1CCN(c2ccc(C(=O)Nc3ccc(F)cc3CC(=O)O)cc2NC(=O)c2nn(CC(F)(F)F)c3ccccc23)CC1 [Example 64] | 5.92 |  | 
14 | O=C(O)Cc1cc(F)ccc1NC(=O)c1ccc(N2CCCCC2)c(NC(=O)c2nn(CCN3CCOCC3)c3ccccc23)c1 [Compound 120, 2-(5-fluoro-2-(3-(1-(2-morpholinoethyl)-1H-indazole-3-carboxamido)-4-(piperidin-1-yl)benzamido)phenyl)acetic acid] | < 4.60 |  | 
15 | O=C(O)Cc1cc(F)ccc1NC(=O)c1ccc(N2CCCCC2)c(NC(=O)Nc2nn(CC(F)(F)F)c3ccccc23)c1 [Compound 129, 2-(5-fluoro-2-(4-(piperidin-1-yl)-3-(3-(1-(2,2,2-trifluoroethyl)-1H-indazol-3-yl)ureido)benzamido)phenyl)acetic acid] | 5.48 |  | 
16 | O=C(O)Cc1cc(F)ccc1NC(=O)c1ccc(N2CCCOCC2)c(NC(=O)c2nn(CC(F)(F)F)c3ccccc23)c1 [Example 63] | 5.00 |  | 
